# Test results: ChEMBL document CHEMBL1139972, “Dihydro-[1H]-quinolin-2-ones as retinoid X receptor (RXR) agonists for potential treatment of dyslipidemia” (Bioorg Med Chem Lett, 2007)
# Calls of active or inactive are those of the source. No cut-off for these calls is given here.
# Assays:
# Rattus norvegicus [1] = experiment: Effect on serum cholesterol level in high cholesterol diet fed Sprague-Dawley rat at 3 mg/kg, po after 8 days relative to control; type: functional
# Rattus norvegicus [2] = experiment: Effect on serum LDL-C level in high cholesterol diet fed Sprague-Dawley rat at 10 mg/kg, po after 8 days relative to control; type: functional
# [3] = Cmax in rat at 3 mg/kg, po; type: ADME, organism-based; design: dose 3 mg/kg, route oral; conditions: in vivo
# Rattus norvegicus [4] = experiment: Effect on serum cholesterol level in high cholesterol diet fed Sprague-Dawley rat at 10 mg/kg, po after 8 days relative to control; type: functional
# [5] = Oral bioavailability in rat at 3 mg/kg; type: ADME, organism-based; conditions: in vivo
# [6] = Half life in rat at 3 mg/kg, po; type: ADME, organism-based; design: dose 3 mg/kg, route oral; conditions: in vivo
# [7] = Cmax in high cholesterol diet fed Sprague-Dawley rat at 30 mg/kg, po after 8 days; type: ADME, organism-based; design: dose 30 mg/kg, route oral; conditions: in vivo
# Rattus norvegicus [8] = experiment: Effect on serum HDL-C level in high cholesterol diet fed Sprague-Dawley rat at 1 mg/kg, po after 8 days relative to control; type: functional
# Rattus norvegicus [9] = experiment: Effect on serum triglyceride level in high cholesterol diet fed Sprague-Dawley rat at 3 mg/kg, po after 8 days relative to control; type: functional
# Rattus norvegicus [10] = experiment: Effect on serum LDL-C level in high cholesterol diet fed Sprague-Dawley rat at 30 mg/kg, po after 8 days relative to control; type: functional
# [11] = target: T1, Retinoic acid receptor RXR-alpha (Homo sapiens) (UniProt P19793); experiment: Activity at RXRalpha by GAL4DNA cotransfection assay relative to 5-((3-(1-ethyl-4,4,6-trimethyl-2-oxo-1,2,3,4-tetrahydroquinolin-7-yl)-4-(trifluoromethoxy)phenyl)methylene)thiazolidine-2,4-dione; design: concentration or dose not given beside the values
# T1 sequence (whole entry): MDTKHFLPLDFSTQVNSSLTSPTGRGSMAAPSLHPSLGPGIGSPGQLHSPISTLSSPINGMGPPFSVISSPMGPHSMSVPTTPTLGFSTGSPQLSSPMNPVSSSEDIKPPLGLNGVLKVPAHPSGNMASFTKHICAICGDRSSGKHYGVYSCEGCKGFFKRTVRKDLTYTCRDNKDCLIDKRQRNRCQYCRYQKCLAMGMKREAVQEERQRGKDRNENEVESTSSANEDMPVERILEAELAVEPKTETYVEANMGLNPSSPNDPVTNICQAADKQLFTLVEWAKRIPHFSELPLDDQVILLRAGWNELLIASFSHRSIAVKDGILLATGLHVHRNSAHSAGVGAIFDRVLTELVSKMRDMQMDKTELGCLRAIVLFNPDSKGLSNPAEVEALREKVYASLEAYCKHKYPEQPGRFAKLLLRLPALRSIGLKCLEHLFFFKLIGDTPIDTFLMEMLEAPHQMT
# Mus musculus = organism: Mus musculus; experiment: Decrease in blood glucose level in db/db mouse after 11 days; type: functional, organism-based
# Rattus norvegicus [12] = experiment: Effect on serum LDL-C level in high cholesterol diet fed Sprague-Dawley rat at 0.3 mg/kg, po after 8 days relative to control; type: functional
# Rattus norvegicus [13] = experiment: Effect on serum cholesterol level in high cholesterol diet fed Sprague-Dawley rat at 0.3 mg/kg, po after 8 days relative to control; type: functional
# Rattus norvegicus [14] = experiment: Effect on serum triglyceride level in high cholesterol diet fed Sprague-Dawley rat at 0.3 mg/kg, po after 8 days relative to control; type: functional
# [15] = AUC in rat at 3 mg/kg, po; type: ADME, organism-based; design: dose 3 mg/kg, route oral; conditions: plasma
# Rattus norvegicus [16] = experiment: Effect on serum LDL-C level in high cholesterol diet fed Sprague-Dawley rat at 3 mg/kg, po after 8 days relative to control; type: functional
# Rattus norvegicus [17] = experiment: Effect on serum triglyceride level in high cholesterol diet fed Sprague-Dawley rat at 10 mg/kg, po after 8 days relative to control; type: functional
# Rattus norvegicus [18] = experiment: Effect on serum cholesterol level in high cholesterol diet fed Sprague-Dawley rat at 1 mg/kg, po after 8 days relative to control; type: functional
# [19] = target: T2, Retinoic acid receptor RXR-alpha (Homo sapiens, UniProt P19793); experiment: Activity at RXRalpha by GAL4DNA cotransfection assay
# T2 sequence (P19793 whole entry): T1 sequence (whole entry)
# [20] = Clearance in rat at 3 mg/kg, po; type: ADME, organism-based; design: dose 3 mg/kg, route oral; conditions: in vivo
# Rattus norvegicus [21] = experiment: Effect on serum triglyceride level in high cholesterol diet fed Sprague-Dawley rat at 30 mg/kg, po after 8 days relative to control; type: functional
# [22] = Activity at RXR-PPARgamma in human preadipocytes assessed as induction of adipocytes fatty acid binding protein; type: cell-based
# Rattus norvegicus [23] = experiment: Effect on serum HDL-C level in high cholesterol diet fed Sprague-Dawley rat at 3 mg/kg, po after 8 days relative to control; type: functional
# [24] = Activity at RXR-LXR heterodimer assessed as induction of ABCA1 mRNA; design: species or system Homo sapiens
# Rattus norvegicus [25] = experiment: Effect on serum HDL-C level in high cholesterol diet fed Sprague-Dawley rat at 10 mg/kg, po after 8 days relative to control; type: functional
# Rattus norvegicus [26] = experiment: Effect on serum HDL-C level in high cholesterol diet fed Sprague-Dawley rat at 30 mg/kg, po after 8 days relative to control; type: functional
# Rattus norvegicus [27] = experiment: Effect on serum triglyceride level in high cholesterol diet fed Sprague-Dawley rat at 1 mg/kg, po after 8 days relative to control; type: functional
# Rattus norvegicus [28] = experiment: Effect on serum cholesterol level in high cholesterol diet fed Sprague-Dawley rat at 30 mg/kg, po after 8 days relative to control; type: functional
# Rattus norvegicus [29] = experiment: Effect on serum LDL-C level in high cholesterol diet fed Sprague-Dawley rat at 1 mg/kg, po after 8 days relative to control; type: functional
# Rattus norvegicus [30] = experiment: Effect on serum HDL-C level in high cholesterol diet fed Sprague-Dawley rat at 0.3 mg/kg, po after 8 days relative to control; type: functional
# Homo sapiens = organism: Homo sapiens; experiment: Activation of RXR-LXR heterodimer assessed as induction of ABCA1 mRNA relative to 5-((3-(1-ethyl-4,4,6-trimethyl-2-oxo-1,2,3,4-tetrahydroquinolin-7-yl)-4-(trifluoromethoxy)phenyl)methylene)thiazolidine-2,4-dione; design: concentration or dose not given beside the values
# [31] = Cmax in high cholesterol diet fed Sprague-Dawley rat at 0.3 mg/kg, po after 8 days; type: ADME, organism-based; design: dose 0.3 mg/kg, route oral; conditions: in vivo
smiles,measurement,setting,value
CCN1C(=O)CC(C)(C)c2cc(C)c(-c3cc(CCC(=O)O)ccc3OC(F)(F)F)cc21,Activity,Rattus norvegicus [1],302 mg/dL
same,Activity,Rattus norvegicus [2],35 mg/dL
same,Cmax,[3],678 ng/mL
same,Activity,Rattus norvegicus [4],228 mg/dL
same,bioavailability,[5],71%
same,half-life,[6],24 h
same,Cmax,[7],7510 ng/mL
same,Activity,Rattus norvegicus [8],30 mg/dL
same,Activity,Rattus norvegicus [9],253 mg/dL
same,Activity,Rattus norvegicus [10],38 mg/dL
same,Activity,[11],79%
same,Activity,Mus musculus,inactive
same,Activity,Rattus norvegicus [12],53 mg/dL
same,Activity,Rattus norvegicus [13],343 mg/dL
same,Activity,Rattus norvegicus [14],320 mg/dL
same,AUC,[15],6130 ng·h/mL
same,Activity,Rattus norvegicus [16],46 mg/dL
same,Activity,Rattus norvegicus [17],270 mg/dL
same,Activity,Rattus norvegicus [18],313 mg/dL
same,EC50,[19],7.2 nM
same,CL/F,[20],4.6 mL/min/kg
same,Activity,Rattus norvegicus [21],322 mg/dL
same,EC50,[22],1200 nM
same,Activity,Rattus norvegicus [23],37 mg/dL
same,EC50,[24],47 nM
same,Activity,Rattus norvegicus [25],39 mg/dL
same,Activity,Rattus norvegicus [26],42 mg/dL
same,Activity,Rattus norvegicus [27],279 mg/dL
same,Activity,Rattus norvegicus [28],252 mg/dL
same,Activity,Rattus norvegicus [29],46 mg/dL
same,Activity,Rattus norvegicus [30],29 mg/dL
same,Activity,Homo sapiens,70%
same,Cmax,[31],58.5 ng/mL
